Results as given in patent publication US20080275018A1, “ANTIBACTERIAL AMIDE-MACROCYCLES V” (AiCuris GmbH & Co. KG, priority 2005, published 2008).

How the values were obtained:
[1] = target: S. aureus 133 Translation; experiment: S. aureus in vitro transcription-translation assay (firefly luciferase, S30 extract); format: biochemical; conditions: 50% inhibition of the translation of firefly luciferase
Source text: For the construction of a reporter plasmid which can be used in an in vitro transcription-translation assay from S. aureus the plasmid pBESTluc (Promega Corporation, USA) is used. The E. coli tac promoter present in this plasmid in front of the firefly luciferase is replaced by the capA1 promoter with corresponding Shine-Dalgarno sequence from S. aureus. The primers CAPFor 5′-[…]-[…] GCCA-3′ and CAPRev 5′-[…]-3′ are used for this. The primer CAPFor contains the capA1 promoter, the ribosome binding site and the 5′ region of the luciferase gene. After PCR using pBESTluc as template it is possible to isolate a PCR product which contains the firefly luciferase gene with the fused capA1 promoter. This is, after restriction with ClaI and HindIII, ligated into the vector pBESTluc which has likewise been digested with ClaI and HindIII. The resulting plasmid pla can be replicated in E. coli and be used as template in the S. aureus in vitro transcription-translation test.
Six litres of BHI medium are inoculated with a 250 ml overnight culture of an S. aureus Strain and allowed to grow at 37° C. until the OD600 nm is 2-4. The cells are harvested by centrifugation and washed in 500 ml of cold buffer A (10 mM Tris acetate, pH 8.0, 14 mM magnesium acetate, 1 mM DTT, 1 M KCl). After renewed centrifugation, the cells are washed in 250 ml of cold buffer A with 50 mM KCl, and the resulting pellets are frozen at −20° C. for 60 min. The pellets are thawed on ice in 30 to 60 min and taken up to a total volume of 99 ml in buffer B (10 mM Tris acetate, pH 8.0, 20 mM magnesium acetate, 1 mM DTT, 50 mM KCl). 1.5 ml portions of lysostaphin (0.8 mg/ml) in buffer B are provided in 3 precooled centrifuge cups and each mixed with 33 ml of the cell suspension. The samples are incubated at 37° C., shaking occasionally, for 45 to 60 min, before 150 μl of a 0.5 M DTT solution are added. The lysed cells are centrifuged at 30 000×g and 4° C. for 30 min. The cell pellet is taken up in buffer B and then centrifuged again under the same conditions, and the collected supernatants are combined. The supernatants are centrifuged again under the same conditions, and 0.25 volumes of buffer C (670 mM Tris acetate, pH 8.0, 20 mM magnesium acetate, 7 mM Na3 phosphoenolpyruvate, 7 mM DTT, 5.5 mM ATP, 70 μM amino acids (complete from Promega), 75 μg of pyruvate kinase (Sigma, Germany)/ml are added to the upper ⅔ of the supernatant. The samples are incubated at 37° C. for 30 min. The supernatants are dialysed against 2 l of dialysis buffer (10 mM Tris acetate, pH 8.0, 14 mM magnesium acetate, 1 mM DTT, 60 mM potassium acetate) in a dialysis tube with a 3500 Da cut-off with one buffer change at 4° C. overnight. The dialysate is concentrated to a protein concentration of about 10 mg/ml by
covering the dialysis tube with cold PEG 8000 powder (Sigma, Germany) at 4° C. The S30 extracts can be stored in aliquots at −70° C.
The inhibition of protein biosynthesis of the compounds can be shown in an in vitro transcription-translation assay. The assay is based on the cell-free transcription and translation of firefly luciferase using the reporter plasmid pla as template and cell-free S30 extracts obtained from S. aureus. The activity of the resulting luciferase can be detected by luminescence measurement.
The amount of S30 extract or plasmid pla to be employed must be tested anew for each preparation in order to ensure an optimal concentration in the test. […] of the substance to be tested, dissolved in 5% DMSO, are introduced into an MTP. Then […] of a suitably concentrated plasmid solution pla are added. […]

S. aureus RN4220 = experiment: Resistance rate of S. aureus RN4220 on agar containing biphenomycin B; format: cell-based, Staphylococcus aureus; conditions: S. aureus RN4220, agar plate containing 2 μg/ml biphenomycin B (10×MIC), 37° C. overnight
Procedure: (§1) The S. aureus Strain RN4220BiR^R is isolated in vitro. For this purpose, 100 μl portions of an S. aureus RN4220 cell suspension (about 1.2×10^8 cfu/ml) are plated out on an antibiotic-free agar plate (18.5 mM Na2HPO4, 5.7 mM KH2PO4, 9.3 mM NH4Cl, 2.8 mM MgSO4, 17.1 mM NaCl, 0.033 μg/ml thiamine hydrochloride, 1.2 μg/ml nicotinic acid, 0.003 μg/ml biotin, 1% glucose, 25 μg/ml of each proteinogenic amino acid with the addition of 0.4% BH broth and 1% agarose) and on an agar plate containing 2 μg/ml biphenomycin B (10×MIC), and incubated at 37° C. overnight. Whereas about 1×10^7 cells grow on the antibiotic-free plate, about 100 colonies grow on the antibiotic-containing plate, corresponding to a resistance rate of 1×10^−5. Some of the colonies grown on the antibiotic-containing plate are tested for the biphenomycin B MIC. One colony with an MIC of >50 μM is selected for further use, and the strain is referred to as RN4220Bi^R.

S. aureus RN4220Bi^R = experiment: MIC against biphenomycin-resistant S. aureus RN4220Bi^R; format: cell-based, Staphylococcus aureus; conditions: colony grown on the antibiotic-containing plate
Procedure: as §1

NC[C@H](O)C[C@@H]1NC(=O)[C@@H](N)Cc2cc(ccc2O)-c2ccc(O)c(c2)C[C@@H](C(=O)O)NC1=O [Biphenomycin B, biphenomycin B, reference compound]
IC50 [1]: 1.5 µM
resistance rate (S. aureus RN4220): 1×10^−5
MIC of selected colony (strain RN4220Bi^R) (S. aureus RN4220Bi^R): > 50 µM
